{"source": "patent US8227203B2", "about": "“Method for testing or screening protein synthesis inhibitors” (The Trustees of the University of Pennsylvania, priority 2007, dated 2012)", "key": {"[1]": {"tested_on": "HeLa PV cells", "test": "SMN sub-cellular localization by indirect immunofluorescence (anti-SMN 2B1)", "type": "cell-based", "conditions": "for redistribution of SMN from the cytoplasm to the nucleus (nuclear accumulation of SMN): HeLa cells, short treatment (2-6 hours), immunofluorescence; for nuclear translocation of SMN at longer times: longer times (>24 hr), FIG. 5a; for completeness of SMN nuclear accumulation compared with CHX: ER stress inducers, FIG. 6B", "procedure": "(§1) HeLa PV were cultured in Dulbecco's modified Eagle's medium (Invitrogen) supplemented with 10% fetal bovine serum (Invitrogen). For screening, cells were seeded onto 384-well plates or, for specific experiments, on glass coverslips the day before treatment. Compounds were added directly into the culture medium to the indicated concentration and the cells were then maintained at 37° C. in a 5% CO2 humidified atmosphere for the duration of the treatment. Dispensing of compounds and other automatic liquid handling steps were performed with a Beckman FX multi-channel system equipped with Hudson Crane robotic systems.\n(§2) The following mouse monoclonal antibodies were used for indirect immunofluorescence: 2B1 (anti-SMN), 2E17 (anti-Gemin2), 12H12 (anti-Gemin3), 10G11 (anti-Gemin5), 6E2 (anti-Gemin7), 10E10 (anti-PABP), 6BG10 (anti-FXR1), Y12 (anti-Sm) and 9H10 (anti-hnRNP A1). An affinity-purified rabbit polyclonal antibody was used to detect Gemin6.\n(§3) Indirect immunofluorescence on HeLa PV cells was performed as follows: HeLa cells, plated on glass coverslips, were briefly washed with PBS, fixed in 2% formaldehyde/PBS for 20 minutes at room temperature, permeabilized in 0.5% Triton X-100/PBS for 5 min at room temperature. Cells were blocked in 3% bovine serum albumin for 1 hour at room temperature. Double-label immunofluorescence experiments were performed by separate sequential incubations of each primary antibody, diluted in PBS containing 3% bovine serum albumin, followed by the specific secondary coupled to fluorescein isothiocyanate or TXRD. All incubations were at room temperature for 1 hour. Indirect epifluorescence microscopy was performed with a Nikon Eclipse E800 microscope. Digital images were collected with a Cook Sensicam high performance camera and processed with the IP laboratory software. Processing of samples for immunofluorescence microscopy on cells cultured in 384-well plates was automated and performed with the aid of microplate washers (ELX405, Bio-Tek) in a similar manner to that previously used for individual samples on glass slides. The cells were also stained with DAPI to allow definition of the nucleus in each cell. Digital images were acquired with an automated microscopy and analysis system (IN Cell Analyzer 1000, GE Healthcare). Images were analyzed using automated algorithms with parameters set to calculate mean pixel intensity in each nucleus (defined by DAPI staining and acquired in a separate channel), cytoplasm, and total cell, as well as the relevant calculated ratios of these values.\nBased on the results obtained in Example 1, a library of ˜5,000 biologically active small molecules was screened on HeLa cells in 384-well plates. Each well was incubated with a different compound (at 10 μM) and the cells were processed for indirect immunofluorescence. Digital images were collected from six fields in each well and analyzed using imaging algorithms for multiple parameters including relative nuclear and cytoplasmic intensities, and number, size and signal intensity of Gems. DAPI-stained images were collected in a separate channel to define the boundary of each nucleus. Images of individual fields in wells were flagged by the software as showing a significant change in SMN sub-cellular localization. These individual wells were examined directly, and active compounds were re-tested for verification (FIG. 2)."}, "[2]": {"tested_on": "HeLa cells", "test": "Cell viability / toxicity of treated cells", "conditions": "overnight treatment with 10 μM CHX"}, "[3]": {"tested_on": "HeLa cells", "test": "Localization of other nuclear and cytoplasmic proteins (hnRNP A1, PABP, FXR1, snRNPs) by immunostaining", "type": "cell-based", "conditions": "6 hrs of 10 μM CHX (FIG. 3c)", "procedure": "as §2\nIndirect immunofluorescence on HeLa PV cells was performed as follows: HeLa cells, plated on glass coverslips, were briefly washed with PBS, fixed in 2% formaldehyde/PBS for 20 minutes at room temperature, permeabilized in 0.5% Triton X-100/PBS for 5 min at room temperature. Cells were blocked in 3% bovine serum albumin for 1 hour at room temperature. Double-label immunofluorescence experiments were performed by separate sequential incubations of each primary antibody, diluted in PBS containing 3% bovine serum albumin, followed by the specific secondary coupled to fluorescein isothiocyanate or TXRD. All incubations were at room temperature for 1 hour. Indirect epifluorescence microscopy was performed with a Nikon Eclipse E800 microscope. […] Images were analyzed using automated algorithms with parameters set to calculate mean pixel intensity in each nucleus (defined by DAPI staining and acquired in a separate channel), cytoplasm, and total cell, as well as the relevant calculated ratios of these values."}, "[4]": {"tested_on": "HeLa cells", "test": "Sub-cellular localization of Gemins by immunostaining", "type": "cell-based", "procedure": "as §1, with “systems. […]” for “systems.”\nIndirect immunofluorescence on HeLa PV cells was performed as follows: HeLa cells, plated on glass coverslips, were briefly washed with PBS, fixed in 2% formaldehyde/PBS for 20 minutes at room temperature, permeabilized in 0.5% Triton X-100/PBS for 5 min at room temperature. […] Images were analyzed using automated algorithms with parameters set to calculate mean pixel intensity in each nucleus (defined by DAPI staining and acquired in a separate channel), cytoplasm, and total cell, as well as the relevant calculated ratios of these values. […]"}, "[5]": {"tested_on": "Hela cells with reduced SMN by RNAi", "test": "SMN localization in HeLa cells with reduced SMN by RNAi (shRNA targeting SMN)", "type": "cell-based", "conditions": "vs cells expressing non-targeting shRNA; 10 μM CHX 6 hours (FIG. 7)", "procedure": "as §3, with “The cells were also stained with DAPI to allow definition of the nucleus in each cell. Digital images were acquired with an automated microscopy and analysis system (IN Cell Analyzer 1000, GE Healthcare).” left out"}}, "data": [{"molecule": "CCOC(=O)CN1C(=O)CC(C[C@@H](O)[C@@H]2C[C@@H](C)C[C@H](C)C2=O)CC1=O", "note": "[cycloheximide-N-ethylethanoate]", "values": [{"measurement": "redistribution of SMN from the cytoplasm to the nucleus (nuclear accumulation of SMN)", "setting": "[1]", "value": "did not show any effect"}]}, {"molecule": "C[C@@H]1C[C@@H]([C@H](O)CC2CC(=O)NC(=O)C2)C(=O)[C@@H](C)C1", "note": "[cycloheximide]", "values": [{"measurement": "cell viability", "setting": "[2]", "value": "no reduction in cell viability"}, {"measurement": "localization of hnRNP A1, PABP, FXR1 and snRNPs", "setting": "[3]", "value": "not significantly affected"}, {"measurement": "relation of nuclear accumulation of SMN to inhibition of protein synthesis", "setting": "[1]", "value": "proportional to the extent of inhibition of protein synthesis"}, {"measurement": "concentration dependence of SMN redistribution from the cytoplasm to the nucleus", "setting": "[1]; 0.1-40 μM (FIG. 3a, b)", "value": "concentration-dependent"}, {"measurement": "treatment time after which the effect on SMN redistribution was evident", "setting": "[1]; HeLa PV cells, 10 μM CHX (FIG. 3a)", "value": 2, "unit": "h"}, {"measurement": "redistribution of SMN from the cytoplasm to the nucleus (nuclear accumulation of SMN)", "setting": "[1]", "value": "most striking accumulation of SMN in the nucleus"}, {"measurement": "SMN remaining in the cytoplasm", "setting": "[1]; after 8 or more hours of treatment", "value": "little SMN detected in the cytoplasm"}, {"measurement": "reversibility of SMN nuclear accumulation", "setting": "[1]; cells washed and placed in fresh medium devoid of cycloheximide", "value": "reversible"}, {"measurement": "SMN localization after overnight treatment", "setting": "[1]; overnight treatment with 10 μM CHX", "value": "all of the SMN was localized to the nucleus"}, {"measurement": "nuclear accumulation of SMN complex components (Gemins)", "setting": "[4]; 6 hours 10 μM CHX (FIG. 4)", "value": "causes most of the components of the SMN complex to accumulate in the nucleus"}, {"measurement": "SMN nuclear accumulation in cells with reduced SMN", "setting": "[5]", "value": "showed a similar effect"}]}, {"molecule": "CC[C@H]1CN2CCc3cc(OC)c(OC)cc3[C@@H]2C[C@@H]1C[C@H]1NCCc2cc(OC)c(OC)cc21", "note": "[emetine]", "values": [{"measurement": "SMN localization (FIG. 6b)", "setting": "[1]; 10 μM", "value": "nuclear accumulation"}, {"measurement": "redistribution of SMN from the cytoplasm to the nucleus (nuclear accumulation of SMN)", "setting": "[1]", "value": "showed the same effect as cycloheximide"}]}, {"molecule": "COc1ccc(C[C@H](N)C(=O)N[C@H]2[C@@H](O)[C@H](n3cnc4c(N(C)C)ncnc43)O[C@@H]2CO)cc1", "note": "[puromycin]", "values": [{"measurement": "SMN localization (FIG. 6b)", "setting": "[1]; 10 μM", "value": "nuclear accumulation"}, {"measurement": "redistribution of SMN from the cytoplasm to the nucleus (nuclear accumulation of SMN)", "setting": "[1]", "value": "showed the same effect as cycloheximide"}]}, {"molecule": "O=C(CCCCCN1C(=O)c2cccc3cccc(c23)C1=O)NO", "note": "[scriptaid]", "values": [{"measurement": "nuclear translocation of SMN at longer times", "setting": "[1]", "value": "caused the same effect as protein synthesis inhibitors"}]}, {"molecule": "C/C=C(/C)C(=O)O[C@H]1C(C)=C2[C@H]([C@@H]1OC(=O)CCCCCCC)[C@@](C)(OC(C)=O)C[C@H](OC(=O)CCC)[C@@]1(O)[C@H]2OC(=O)[C@@]1(C)O", "note": "[thapsigargin]", "values": [{"measurement": "SMN localization (FIG. 6b)", "setting": "[1]; 10 μM", "value": "nuclear accumulation"}, {"measurement": "completeness of SMN nuclear accumulation compared with CHX", "setting": "[1]", "value": "not as complete as that seen after treatment with high levels of CHX"}, {"measurement": "redistribution of SMN from the cytoplasm to the nucleus (nuclear accumulation of SMN)", "setting": "[1]", "value": "caused SMN to accumulate in the nucleus"}]}, {"molecule": "CC(/C=C/C(=O)NO)=C\\[C@@H](C)C(=O)c1ccc(N(C)C)cc1", "note": "[trichostatin A]", "values": [{"measurement": "nuclear translocation of SMN at longer times", "setting": "[1]", "value": "caused the same effect as protein synthesis inhibitors"}]}, {"molecule": "CCCC(CCC)C(=O)O", "note": "[valproic acid]", "values": [{"measurement": "concentration dependence of nuclear localization of SMN", "setting": "[1]; 2-10 mM VPA (FIG. 5b)", "value": "clear concentration dependence effect"}, {"measurement": "nuclear translocation of SMN at longer times", "setting": "[1]", "value": "caused the same effect as protein synthesis inhibitors"}, {"measurement": "localization of Gemin3 and Gemin5", "setting": "[4]; 24 hour treatment, 10 mM VPA (FIG. 5c)", "value": "remain predominantly cytoplasmic"}]}, {"molecule": "tunicamycin", "values": [{"measurement": "SMN localization (FIG. 6b)", "setting": "[1]; 10 μg/ml", "value": "nuclear accumulation"}, {"measurement": "completeness of SMN nuclear accumulation compared with CHX", "setting": "[1]", "value": "not as complete as that seen after treatment with high levels of CHX"}, {"measurement": "redistribution of SMN from the cytoplasm to the nucleus (nuclear accumulation of SMN)", "setting": "[1]", "value": "caused SMN to accumulate in the nucleus"}]}]}
